Tests used:
Assay type in all cases: biochemical
[1] = target: T1, FGFR1 (Homo sapiens, UniProt P11362, C488A/C584S); test: AlphaScreen kinase assay, FGFR1; conditions: read-out: IC50, activity toward kinase FGFR
T1 construct: P1351.pET N6 BI-PTP FGFR A458-E765-X C488A, C584S; made in house; host or cells: E. coli (PTP1B co-expressed)

[2] = target: T2, c-Raf-1 (Homo sapiens, UniProt P04049); test: AlphaScreen kinase assay, c-Raf-1; conditions: read-out: IC50, activity toward kinase c-Raf-1
T2 construct: purchased Upstate Biotechnology
T2 sequence (P04049 whole entry): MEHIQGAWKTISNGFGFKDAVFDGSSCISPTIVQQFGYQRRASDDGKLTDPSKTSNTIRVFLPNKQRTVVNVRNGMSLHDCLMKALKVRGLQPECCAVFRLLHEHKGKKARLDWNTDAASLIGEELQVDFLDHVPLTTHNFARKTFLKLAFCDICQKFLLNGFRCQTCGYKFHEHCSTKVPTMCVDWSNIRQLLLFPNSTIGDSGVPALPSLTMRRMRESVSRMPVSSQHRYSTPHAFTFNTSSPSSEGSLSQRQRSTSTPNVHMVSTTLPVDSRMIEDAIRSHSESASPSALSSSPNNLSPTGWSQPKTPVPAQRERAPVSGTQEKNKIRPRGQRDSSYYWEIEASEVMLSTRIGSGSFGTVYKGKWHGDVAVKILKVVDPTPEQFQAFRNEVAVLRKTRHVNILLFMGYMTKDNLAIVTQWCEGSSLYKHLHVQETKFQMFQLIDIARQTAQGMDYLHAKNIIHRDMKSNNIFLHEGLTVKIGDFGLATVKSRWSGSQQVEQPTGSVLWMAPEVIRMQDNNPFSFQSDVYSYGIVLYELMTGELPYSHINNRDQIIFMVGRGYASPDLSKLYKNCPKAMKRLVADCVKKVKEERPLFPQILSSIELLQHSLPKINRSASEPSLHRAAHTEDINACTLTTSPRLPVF

[3] = target: T3, Fak (Homo sapiens, UniProt Q05397); test: AlphaScreen kinase assay, Fak; conditions: read-out: IC50, activity toward kinase Fak
T3 construct: P1358.pFastBacHtb FAK S411-Q686-X; His6 with pFastBacHTb leader (TEV site) (N); made in house; host or cells: Sf9 (baculovirus)
T3 sequence (Q05397 411-686): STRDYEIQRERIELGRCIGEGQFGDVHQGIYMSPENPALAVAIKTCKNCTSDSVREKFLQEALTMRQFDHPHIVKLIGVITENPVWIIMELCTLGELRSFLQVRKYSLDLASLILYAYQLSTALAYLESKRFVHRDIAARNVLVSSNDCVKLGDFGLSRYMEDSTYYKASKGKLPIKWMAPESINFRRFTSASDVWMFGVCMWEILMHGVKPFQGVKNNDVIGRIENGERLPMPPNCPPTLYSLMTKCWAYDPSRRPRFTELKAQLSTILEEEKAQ

[4] = target: T4, B-Raf (Homo sapiens, UniProt P15056); test: AlphaScreen kinase assay, B-Raf; conditions: read-out: IC50, activity toward kinase B-Raf
T4 construct: purchased Upstate Biotechnology
T4 sequence (P15056 whole entry): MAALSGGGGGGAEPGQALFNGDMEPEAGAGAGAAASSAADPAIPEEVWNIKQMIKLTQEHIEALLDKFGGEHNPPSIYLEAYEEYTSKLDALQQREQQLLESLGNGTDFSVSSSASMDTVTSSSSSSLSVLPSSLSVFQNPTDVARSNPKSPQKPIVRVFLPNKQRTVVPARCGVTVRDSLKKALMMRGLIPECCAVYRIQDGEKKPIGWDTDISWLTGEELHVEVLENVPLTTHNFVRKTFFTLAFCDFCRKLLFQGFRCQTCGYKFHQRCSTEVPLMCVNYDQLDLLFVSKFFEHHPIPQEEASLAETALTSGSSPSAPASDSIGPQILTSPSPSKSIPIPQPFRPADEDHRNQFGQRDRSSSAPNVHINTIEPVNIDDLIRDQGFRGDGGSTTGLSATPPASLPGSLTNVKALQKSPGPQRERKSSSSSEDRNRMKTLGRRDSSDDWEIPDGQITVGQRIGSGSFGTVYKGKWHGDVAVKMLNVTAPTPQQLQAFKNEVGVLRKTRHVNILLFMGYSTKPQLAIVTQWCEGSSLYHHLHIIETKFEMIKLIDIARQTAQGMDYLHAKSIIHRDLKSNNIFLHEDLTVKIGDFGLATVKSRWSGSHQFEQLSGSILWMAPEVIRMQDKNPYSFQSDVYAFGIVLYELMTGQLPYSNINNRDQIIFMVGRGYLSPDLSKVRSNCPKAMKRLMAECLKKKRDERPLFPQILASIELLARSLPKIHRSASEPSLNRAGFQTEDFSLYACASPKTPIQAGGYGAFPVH

[5] = target: T5, B-Raf V600E (Homo sapiens, UniProt P15056, V600E); test: AlphaScreen kinase assay, B-Raf V600E; conditions: read-out: IC50, activity toward kinase B-Raf V600E
T5 construct: P4254. pFastBacBD-CDC37 BRAF D437-K722-X, V600E; His6 with pFastBac HT leader (TEV site) (N); made in house; host or cells: Sf9 (baculovirus; chaperone CDC37 co-expressed)
T5 sequence (P15056 with tags, fused parts or gaps V600E): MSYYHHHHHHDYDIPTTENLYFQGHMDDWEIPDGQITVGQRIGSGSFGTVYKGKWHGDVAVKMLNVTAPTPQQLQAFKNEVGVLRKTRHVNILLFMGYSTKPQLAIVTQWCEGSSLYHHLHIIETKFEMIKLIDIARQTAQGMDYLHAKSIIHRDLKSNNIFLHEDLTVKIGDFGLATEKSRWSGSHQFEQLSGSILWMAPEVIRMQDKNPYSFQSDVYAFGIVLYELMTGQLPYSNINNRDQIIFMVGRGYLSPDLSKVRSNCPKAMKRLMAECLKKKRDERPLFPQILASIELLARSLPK

[6] = target: T6, Flt1 (Homo sapiens, UniProt P17948); test: AlphaScreen kinase assay, Flt1; conditions: read-out: IC50, activity toward kinase Flt1
T6 construct: P1826.pETN6 BI-PTP FLT1 M799-D1165-X WT; His6 (N); made in house; host or cells: E. coli (PTP1B co-expressed)
T6 sequence (P17948 with tags, fused parts or gaps): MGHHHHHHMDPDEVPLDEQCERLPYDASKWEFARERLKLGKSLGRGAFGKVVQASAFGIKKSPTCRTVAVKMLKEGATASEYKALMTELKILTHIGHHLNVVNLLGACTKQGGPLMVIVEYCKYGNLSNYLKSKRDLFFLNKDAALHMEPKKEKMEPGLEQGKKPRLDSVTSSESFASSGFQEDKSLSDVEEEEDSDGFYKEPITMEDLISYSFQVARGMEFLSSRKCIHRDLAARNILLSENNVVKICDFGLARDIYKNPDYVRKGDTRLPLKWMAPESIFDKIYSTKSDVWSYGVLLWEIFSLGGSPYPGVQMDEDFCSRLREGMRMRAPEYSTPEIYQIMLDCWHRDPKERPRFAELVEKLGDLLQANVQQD

[7] = target: T7, Fms (Homo sapiens, UniProt P07333); test: AlphaScreen kinase assay, Fms; conditions: read-out: IC50, activity toward kinase Fms
T7 construct: purchased Upstate Biotechnology
T7 sequence (P07333 20-972): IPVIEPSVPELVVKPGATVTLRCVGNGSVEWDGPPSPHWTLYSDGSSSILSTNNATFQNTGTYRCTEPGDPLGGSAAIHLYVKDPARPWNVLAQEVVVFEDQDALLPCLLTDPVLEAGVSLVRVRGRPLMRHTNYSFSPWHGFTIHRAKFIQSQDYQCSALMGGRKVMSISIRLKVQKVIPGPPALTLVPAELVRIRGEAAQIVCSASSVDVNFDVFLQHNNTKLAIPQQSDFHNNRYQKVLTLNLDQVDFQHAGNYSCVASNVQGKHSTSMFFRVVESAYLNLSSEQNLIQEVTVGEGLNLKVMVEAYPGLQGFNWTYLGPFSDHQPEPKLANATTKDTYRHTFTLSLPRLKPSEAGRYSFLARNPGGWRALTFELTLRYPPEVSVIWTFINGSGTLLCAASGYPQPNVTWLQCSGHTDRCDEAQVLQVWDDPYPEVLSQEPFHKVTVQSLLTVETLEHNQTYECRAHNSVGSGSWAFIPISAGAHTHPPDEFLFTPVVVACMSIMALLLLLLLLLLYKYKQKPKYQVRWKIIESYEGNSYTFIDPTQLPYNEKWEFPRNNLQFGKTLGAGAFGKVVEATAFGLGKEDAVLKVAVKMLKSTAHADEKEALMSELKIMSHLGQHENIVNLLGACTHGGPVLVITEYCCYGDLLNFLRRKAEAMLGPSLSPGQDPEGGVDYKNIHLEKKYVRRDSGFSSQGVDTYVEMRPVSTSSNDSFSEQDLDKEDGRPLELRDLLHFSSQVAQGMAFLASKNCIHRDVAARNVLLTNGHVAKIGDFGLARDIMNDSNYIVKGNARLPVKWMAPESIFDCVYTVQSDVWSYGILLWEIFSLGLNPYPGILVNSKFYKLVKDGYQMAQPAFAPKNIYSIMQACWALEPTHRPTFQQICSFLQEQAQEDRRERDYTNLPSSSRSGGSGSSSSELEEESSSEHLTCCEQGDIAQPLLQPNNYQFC

[8] = target: T8, Kit (Homo sapiens, UniProt P10721); test: AlphaScreen kinase assay, Kit; conditions: read-out: IC50, activity toward kinase Kit
T8 construct: P1332.N6 BI PTP KIT M552-K948-X COD; His6 (N); made in house; host or cells: E. coli (PTP1B co-expressed)
T8 sequence (P10721 with tags, fused parts or gaps): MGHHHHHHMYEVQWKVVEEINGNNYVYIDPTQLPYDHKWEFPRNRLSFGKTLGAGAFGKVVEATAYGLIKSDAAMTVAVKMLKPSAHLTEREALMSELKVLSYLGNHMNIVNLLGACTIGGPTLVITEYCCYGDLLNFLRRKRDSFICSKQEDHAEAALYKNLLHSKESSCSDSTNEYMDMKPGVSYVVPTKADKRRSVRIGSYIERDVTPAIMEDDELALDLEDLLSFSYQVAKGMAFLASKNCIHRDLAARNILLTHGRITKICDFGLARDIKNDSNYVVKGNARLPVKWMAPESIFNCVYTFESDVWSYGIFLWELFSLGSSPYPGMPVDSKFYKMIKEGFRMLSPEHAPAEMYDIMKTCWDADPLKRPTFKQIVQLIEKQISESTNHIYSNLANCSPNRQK

[9] = target: T9, Src (Homo sapiens, UniProt P12931); test: AlphaScreen kinase assay, Src; conditions: read-out: IC50, activity toward kinase Src
T9 construct: P1144. pET-N6 BI-PTP SRC V86-L536-X; made in house
T9 sequence (P12931 with tags, fused parts or gaps): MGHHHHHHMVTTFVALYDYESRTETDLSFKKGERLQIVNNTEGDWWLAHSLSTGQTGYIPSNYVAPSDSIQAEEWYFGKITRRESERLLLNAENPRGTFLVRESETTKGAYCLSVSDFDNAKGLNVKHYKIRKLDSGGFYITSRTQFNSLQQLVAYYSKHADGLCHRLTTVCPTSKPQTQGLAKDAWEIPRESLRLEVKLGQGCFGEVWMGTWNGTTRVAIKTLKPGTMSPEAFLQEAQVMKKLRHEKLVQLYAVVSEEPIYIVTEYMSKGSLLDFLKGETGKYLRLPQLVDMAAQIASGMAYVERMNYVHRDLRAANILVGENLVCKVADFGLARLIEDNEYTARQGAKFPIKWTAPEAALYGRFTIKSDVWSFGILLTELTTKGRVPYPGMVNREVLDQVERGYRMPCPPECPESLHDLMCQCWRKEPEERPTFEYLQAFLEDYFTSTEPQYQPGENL

[10] = target: T10, Jnk1 (Homo sapiens, UniProt P45983); test: AlphaScreen kinase assay, Jnk1; conditions: read-out: IC50, activity toward kinase Jnk1
T10 construct: purchased Upstate Biotechnology
T10 sequence (P45983 whole entry): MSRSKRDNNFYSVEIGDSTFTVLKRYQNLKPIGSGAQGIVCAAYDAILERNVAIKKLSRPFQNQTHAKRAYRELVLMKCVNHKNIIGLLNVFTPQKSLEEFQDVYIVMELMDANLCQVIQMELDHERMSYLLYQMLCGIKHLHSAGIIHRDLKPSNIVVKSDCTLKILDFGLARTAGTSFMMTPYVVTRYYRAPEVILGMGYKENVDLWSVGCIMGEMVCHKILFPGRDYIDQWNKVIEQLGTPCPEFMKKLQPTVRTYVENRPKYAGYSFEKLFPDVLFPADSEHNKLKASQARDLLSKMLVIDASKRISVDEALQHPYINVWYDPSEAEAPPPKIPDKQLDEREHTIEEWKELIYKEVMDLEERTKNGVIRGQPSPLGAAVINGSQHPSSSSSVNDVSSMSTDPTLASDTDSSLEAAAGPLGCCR

[11] = target: T11, Jnk3 (Homo sapiens, UniProt P53779); test: AlphaScreen kinase assay, Jnk3; conditions: read-out: IC50, activity toward kinase Jnk3
T11 construct: purchased Upstate Biotechnology

T1 sequence (P11362 458-765 C488A/C584S): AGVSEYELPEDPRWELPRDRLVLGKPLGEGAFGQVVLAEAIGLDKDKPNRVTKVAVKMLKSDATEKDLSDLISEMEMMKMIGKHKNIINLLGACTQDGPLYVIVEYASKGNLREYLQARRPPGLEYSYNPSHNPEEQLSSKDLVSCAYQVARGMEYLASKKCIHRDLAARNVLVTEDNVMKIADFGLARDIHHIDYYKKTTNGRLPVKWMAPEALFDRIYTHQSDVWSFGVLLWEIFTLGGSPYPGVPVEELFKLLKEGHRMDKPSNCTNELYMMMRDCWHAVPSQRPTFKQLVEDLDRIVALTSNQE

SMILES	IC50 [1] [µM]	IC50 [2] [µM]	IC50 [3] [µM]	IC50 [4] [µM]	IC50 [5] [µM]	IC50 [6] [µM]	IC50 [7] [µM]	IC50 [8] [µM]	IC50 [9] [µM]	IC50 [10] [µM]	IC50 [11] [µM]
CCCS(=O)(=O)Nc1ccc(F)c(Cc2c[nH]c3ncc(-c4cccnc4)cc23)c1F [Compound P-1397]	≤ 10	≤ 10	≤ 10	≤ 10	≤ 10		≤ 10	≤ 10	≤ 10		
CCCS(=O)(=O)Nc1ccc(F)c(C(=O)c2c[nH]c3ncc(Br)cc23)c1 [Compound P-1403, Propane-1-sulfonic acid [3-(5-bromo-1H-pyrrolo[2,3-b]pyridine-3-carbonyl)-4-fluoro-phenyl]-amide]	≤ 10	≤ 10	≤ 10		≤ 10	≤ 10	≤ 10	≤ 10	≤ 10		
CCCS(=O)(=O)Nc1ccc(F)c(C(=O)c2c[nH]c3ncc(OC)cc23)c1 [Compound P-1433]	≤ 10	≤ 10	≤ 10	≤ 10	≤ 10	≤ 10	≤ 10	≤ 10	≤ 10	≤ 10	
O=C(Nc1cccc(Cc2c[nH]c3ncc(-c4cccnc4)cc23)c1)NC1CCCC1 [Compound P-1446, 1-Cyclopentyl-3-[3-(5-pyridin-3-yl-1H-pyrrolo[2,3-b]pyridin-3-ylmethyl)-phenyl]-urea]	≤ 10		≤ 10	≤ 10	≤ 10	≤ 10		≤ 10	≤ 10	≤ 10	
O=C(Nc1ccc(F)c(C(O)c2c[nH]c3ncc(Br)cc23)c1F)OCc1ccccc1 (stereo not drawn) [Compound P-1451]	≤ 10	≤ 10	≤ 10	≤ 10	≤ 10		≤ 10	≤ 10	≤ 10		
Fc1cccc(F)c1Cc1c[nH]c2ncc(-c3cccnc3)cc12 [Compound P-1477, 3-(2,6-Difluoro-benzyl)-5-pyridin-3-yl-1H-pyrrolo[2,3-b]pyridine]	≤ 10		≤ 10	≤ 10	≤ 10		≤ 10		≤ 10		≤ 10

More lines, now with the values ahead:

IC50 [1] [µM]	IC50 [2] [µM]	IC50 [3] [µM]	IC50 [4] [µM]	IC50 [5] [µM]	IC50 [6] [µM]	IC50 [7] [µM]	IC50 [8] [µM]	IC50 [9] [µM]	IC50 [10] [µM]	IC50 [11] [µM]	SMILES
≤ 10	≤ 10	≤ 10	≤ 10	≤ 10	≤ 10	≤ 10	≤ 10	≤ 10			CCCCS(=O)(=O)Nc1cccc(C(=O)c2c[nH]c3ncc(Cl)cc23)c1F [Compound P-1250, Butane-1-sulfonic acid [3-(5-chloro-1H-pyrrolo[2,3-b]pyridine-3-carbonyl)-2-fluoro-phenyl]-amide]
≤ 10	≤ 10	≤ 10	≤ 10	≤ 10	≤ 10	≤ 10	≤ 10	≤ 10			O=C(c1cccc(NS(=O)(=O)c2ccccc2)c1F)c1c[nH]c2ncc(Cl)cc12 [Compound P-1255, N-[3-(5-chloro-1H-pyrrolo[2,3-b]pyridine-3-carbonyl)-2-fluoro-phenyl]benzenesulfonamide]
≤ 10	≤ 10	≤ 10	≤ 10	≤ 10	≤ 10		≤ 10	≤ 10	≤ 10		CCCS(=O)(=O)Nc1cccc(C(=O)c2c[nH]c3ncc(OC)cc23)c1F [Compound P-1256, Propane-1-sulfonic acid [2-fluoro-3-(5-methoxy-1H-pyrrolo[2,3-b]pyridine-3-carbonyl)-phenyl]-amide]
≤ 10		≤ 10	≤ 10	≤ 10			≤ 10	≤ 10	≤ 10	≤ 10	CC(=O)Nc1cccc(-c2cnc3[nH]cc(Cc4ccccc4F)c3c2)c1 [Compound P-1347]
